Results: patent publication US8680065B2, “Oligonucleotides of human endogenous retrovirus 9 (ERV-9) long terminal repeat (LTR) and methods of use” (The United States of America, as represented by the …, priority 2008, dated 2014)

What was measured:
HT1080 cells = assay: Cancer cell proliferation, U3 and U5 oligonucleotides, 72 hours; assay type: cell-based, human; settings: 20 μg/ml
Description: FIG. 16 is a graph showing the effect of sense and antisense ERV-9 U3 (SEQ ID NOs: 1, 2, 7, 8, 9, and 10) and U5 (SEQ ID NOs: 11 and 12) oligonucleotides on proliferation of HT1080 cells. Cells (4×10^4) were treated with oligonucleotide formulated in LIPOFECTAMINE™ at a concentration of 20 μg/ml for 72 hours. GFP sense oligonucleotide was used as a control to measure the non-specific cytotoxicity of phosphorothioate-based oligonucleotides. Antisense oligonucleotides G3139, GRN163, and MDM2 were also evaluated. Cell proliferation levels were expressed relative to cells transfected with GFP oligonucleotide. All U3 and U5 sense and antisense oligonucleotides inhibited cell proliferation to a greater extent that GFP control. In addition, with the exception of the U5 sense oligonucleotide, all U3 and U5 oligonucleotides inhibited cell proliferation better than the G3139, GRN163 and MDM2 antisense oligonucleotides.
(§1) HT1080 or MDA-231 cells (4×10^4 cells) were treated with ERV-9 LTR (U3 or U5) sense or antisense oligonucleotides formulated in LIPOFECTAMINE™ at a concentration of 20 μg/ml for 72 hours. GFP sense oligonucleotide was used as a control to measure the non-specific cytotoxicity of phosphorothioates-based oligonucleotides. Relative cell proliferation levels were expressed as percentage of GFP oligonucleotide transfected control. The results are shown in FIG. 16 (HT1080 cells) and FIG. 17 (MDA-231 cells).

tumor = settings: U.S. Pat. Nos. 7,256,284 and 6,946,447; Ozawa et al. 2004; cited from earlier work
LNcaP cells = assay: Cancer cell proliferation, oligonucleotide in combination with VP16, 48 hours; assay type: cell-based, human; settings: oligonucleotide 15 μg/ml with VP16 30 ng/ml and 50 ng/ml
Description: FIG. 10 is a graph showing proliferation of LNcaP cells treated with ERV-9 U3 sense or antisense oligonucleotide (SEQ ID NOs: 1 and 2, respectively), in combination with VP16. Cells (4×10^4) were treated with oligonucleotide (15 μg/ml) alone or in combination with the concentrations of VP16 shown for 48 hours.
To test the effect of treating cancer cells with the combination of ERV-9 U3 oligonucleotide and VP16, six different cancer cell lines were analyzed: HT1080, (FIG. 7); MDA-231 (FIG. 8); K562 (FIG. 9); LNcaP (FIG. 10); HepG2 (FIG. 11); and MCF-7 (FIG. 12). Cells (4×10^4) were treated with 15 μg/ml ERV-9 U3 sense (SEQ ID NO: 1) or antisense (SEQ ID NO: 2) oligonucleotide alone or in combination with VP16 at a concentration of 30 ng/ml or 50 ng/ml. After 48 hours, cell proliferation was assessed by direct cell counting. Cell proliferation levels were expressed relative to GFP oligonucleotide control in the absence of VP16.

MDA-231 cells [1] = assay: Cancer cell proliferation, U3 and U5 oligonucleotides, 72 hours; assay type: cell-based, human; settings: 20 μg/ml
Description: FIG. 17 is a graph showing the effect of sense and antisense ERV-9 U3 and (SEQ ID NOs: 1, 2, 7, 8, 9, and 10) and U5 (SEQ ID NOs: 11 and 12) oligonucleotides on proliferation of MDA-231 cells. Cells (4×10^4) were treated with oligonucleotide formulated in LIPOFECTAMINE™ at a concentration of 20 μg/ml for 72 hours. GFP sense oligonucleotide and G3139, GRN163 and MDM2 antisense oligonucleotides were included as controls. Cell proliferation levels were expressed relative to cells transfected with GFP oligonucleotide. All U3 and U5 sense and antisense oligonucleotides inhibited cell proliferation better than GFP control and the G3139, GRN163 and MDM2 antisense oligonucleotides.
as §1

[2] = system: MDA-231 cells (a breast cancer cell line); assay: Cancer cell proliferation, oligonucleotide in LIPOFECTAMINE, 48 hours, direct cell counting; assay type: cell-based, human; settings: oligonucleotide 10, 20 or 30 μg/ml, P<0.05
MDA-231 cells [3] = assay: Cancer cell proliferation, oligonucleotide in combination with VP16, 48 hours; assay type: cell-based, human; settings: oligonucleotide 15 μg/ml with VP16 30 ng/ml and 50 ng/ml, P<0.05
[4] = system: LNcaP cells (a prostate cancer cell line); assay: Cancer cell proliferation, oligonucleotide in LIPOFECTAMINE, 48 hours, direct cell counting; assay type: cell-based, human; settings: oligonucleotide 10, 20 or 30 μg/ml
MCF-7 cells = assay: Tumor cell proliferation, siRNA in LIPOFECTAMINE, 72 hours; assay type: cell-based, human; settings: siRNA 100 nM
Description: (§2) FIG. 20 is a pair of graphs showing the effect of ERV-9 LTR U3 region siRNA (SEQ ID NOs: 13 and 14), alone or in combination with VP16, on proliferation of MDA-231 (top) and MCF-7 (bottom) cells. 4×10^4 cells were treated with siRNAs formulated in LIPOFECTAMINE™ at 100 nM for 72 hours. RRM2 is a combination of three siRNAs (SEQ ID NOs: 15, 16, and 17) against ribonucleotide reductase subunit M2. Relative cell proliferation levels were expressed as percentage of non-treated control.
(§3) 4×10^4 cells were treated with siRNAs formulated in LIPOFECTAMINE™ at 100 nM for 72 hours. […] For RRM2, a combination of the 3 siRNAs was used at final concentration of 100 nM. Relative cell proliferation levels were expressed as percentage of non-treated control. Student's t-test was used for statistics.

MDA-231 cells [5] = assay: as above; assay type: cell-based, human; settings: siRNA 100 nM
Description: as §2, §3

Substance	cell proliferation relative to GFP oligonucleotide transfected control (HT1080 cells)	tumor growth in animal models (tumor)	cell proliferation relative to GFP oligonucleotide control (LNcaP cells)	cell proliferation relative to GFP oligonucleotide transfected control (MDA-231 cells [1])	cell proliferation relative to GFP oligonucleotide [2]	cell proliferation relative to GFP oligonucleotide control (MDA-231 cells [3])	cell proliferation relative to GFP oligonucleotide [4]	other results
U3AS5: ERV-9 U3 antisense oligonucleotide CCGACCGGTTCCGGTCTCGGCCGAGG, target nt 2792-2817 (AF064190) (listed as DNA, chemistry not given here) [Oligo U3AS5]	inhibited cell proliferation better than G3139, GRN163 and MDM2 oligonucleotides	–	–	–	–	–	–	–
U5S: ERV-9 U5 sense oligonucleotide GAACACATCCAAACATCAGAAC, target nt 819-840 (AF064191) (listed as DNA, chemistry not given here) [Oligo U5S]	inhibited cell proliferation better than the GFP oligonucleotide control	–	–	–	–	–	–	–
U5AS: ERV-9 U5 antisense oligonucleotide GTTCTGATGTTTGGATGTGTTC, target nt 819-840 (AF064191) (listed as DNA, chemistry not given here) [Oligo U5AS]	inhibited cell proliferation better than G3139, GRN163 and MDM2 oligonucleotides	–	–	–	–	–	–	–
GRN163: antisense oligonucleotide specific for telomerase, TAGGGTTAGACAA (listed as DNA, further chemistry not given here)	–	has been previously shown to inhibit tumor growth in animal models	did not inhibit cell proliferation at any VP16 concentration tested	inhibited cell proliferation better than the GFP control oligonucleotide	inhibited cell proliferation only at concentrations of 10 μg/ml and 20 μg/ml	inhibited cell proliferation only at a VP16 concentration of 50 ng/ml	did not significantly inhibit cell proliferation at any of the three concentration levels	–
U3S4: ERV-9 U3 sense oligonucleotide CCGAGCCTCGCCGACGAGCGCCGC, target nt 3096-3119 (AF064190) (listed as DNA, chemistry not given here) [Oligo U3S4]	inhibited cell proliferation better than G3139, GRN163 and MDM2 oligonucleotides	–	–	–	–	–	–	–
U3AS4: ERV-9 U3 antisense oligonucleotide GCGGCGCTCGTCGGCGAGGCACGG, target nt 3096-3119 (AF064190) (listed as DNA, chemistry not given here) [Oligo U3AS4]	inhibited cell proliferation better than G3139, GRN163 and MDM2 oligonucleotides	–	–	–	–	–	–	–
G3139: antisense oligonucleotide specific for Bcl-2, TCTCCCAGCGTGCGCCAT (listed as DNA, chemistry not given here) [Oligo G3139]	inhibited cell proliferation better than the GFP oligonucleotide control	has been previously shown to inhibit tumor growth in animal models	did not inhibit cell proliferation at any VP16 concentration tested	inhibited cell proliferation better than the GFP control oligonucleotide	inhibited cell proliferation only at oligonucleotide concentrations of 20 μg/ml and 30 μg/ml	inhibited cell proliferation only at a VP16 concentration of 50 ng/ml	did not significantly inhibit cell proliferation at any of the three concentration levels	–
ERV-9 LTR U3 siRNA: siRNA duplex of the ERV9 LTR U3 region: CUCAAGGUUUGUAAACACACCAAUCAG and CUGAUUGGUGUGUUUACAAACCUUGAG (listed as RNA, chemistry not given here)	–	–	–	–	–	–	–	cell proliferation as percentage of non-treated control (MCF-7 cells): inhibited cell proliferation better than RRM2 siRNAs; cell proliferation as percentage of non-treated control (MDA-231 cells [5]): inhibited cell proliferation better than RRM2 siRNAs
MDM2 antisense oligonucleotide: antisense oligonucleotide specific for MDM2, TGACACCTGTTCTCACTCAC (listed as DNA, chemistry not given here)	inhibited cell proliferation better than the GFP oligonucleotide control	has been previously shown to inhibit tumor growth in animal models	inhibited cell proliferation better than GFP control only at a VP16 concentration of 30 ng/ml	inhibited cell proliferation better than the GFP control oligonucleotide	inhibited cell proliferation only at concentrations of 10 μg/ml and 20 μg/ml	inhibited cell proliferation only at a VP16 concentration of 50 ng/ml	inhibited cell proliferation only at a concentration of 10 μg/ml	–
U3S5: ERV-9 U3 sense oligonucleotide GGCTGGCCAAGGCCAGAGCCGGCTCC, target nt 2792-2817 (AF064190) (listed as DNA, chemistry not given here) [Oligo U3S5]	inhibited cell proliferation better than G3139, GRN163 and MDM2 oligonucleotides	–	–	–	–	–	–	–
